Measured values published in US20250312433A1, “Process for Producing of Vaccine Formulations With Preservatives” (priority 2022, published 2025).

Tests used:
[1] = Dissolution time of 2-PE in Succinate Buffered Saline (visual observation); assay type: physicochemical; settings: 300 rpm, about 20° C.; for 2-PE bulk dissolution Time: all dissolved besides up to approximately 5 small particles
Experimental: (§1) The objective of this study was to evaluate the dissolution time and solubility of 2-phenoxyethanol (2-PE). 2-PE dissolution and concentration were evaluated at the following concentrations in Succinate Buffered Saline (SBS) (5 mM succinate, 150 mM NaCl, pH 5.8); 11 g/L, 16.5 g/L, and 20 g/L.
(§2) Appropriate amount of 2-PE was weighed out in 400 ml beaker and appropriate amount of succinate buffered saline was added. Agitation speed was 300 rpm and solution temperature about 20° C. The time for complete dissolution based on visual observation was recorded. 2-PE concentration was measured by RP-HPLC.

[2] = 2-PE concentration / solubility in Succinate Buffered Saline by RP-HPLC; assay type: physicochemical; settings: for Measured 2-PE concentration: RP-HPLC
Experimental: as §1, §2

OCCOc1ccccc1 [2-PE, 2-phenoxyethanol]
2-PE bulk dissolution Time ([1]; 11 mg/mL 2-PE in SBS (5 mM succinate, 150 mM NaCl, pH 5.8)): 7 min
2-PE bulk dissolution Time ([1]; 16.5 mg/mL 2-PE in SBS): 9 min
2-PE bulk dissolution Time ([1]; 20 mg/mL 2-PE in SBS): 15 min
2-PE complete dissolution time ([1]; 20 mg/mL 2-PE in SBS, all small particles dissolved): 35 min
measured 2-PE concentration below the target concentration ([2]; all concentrations (11, 16.5, 20 mg/mL) in SBS): approximately 5%
solubility ([2]; aqueous buffer, thermodynamic from solid, succinate-buffered saline (pH 5.8) at 20° C.): ≥ 19.1 mg/mL
Percent Difference (measured − target)/target × 100 ([2]; target 11.0 mg/mL in SBS): −4.5%
Measured 2-PE concentration ([2]; target 11.0 mg/mL in SBS): 10.5 mg/mL
Percent Difference (measured − target)/target × 100 ([2]; target 16.5 mg/mL in SBS): −5.5%
Measured 2-PE concentration ([2]; target 16.5 mg/mL in SBS): 15.6 mg/mL
Percent Difference (measured − target)/target × 100 ([2]; target 20.0 mg/mL in SBS): −4.5%
Measured 2-PE concentration ([2]; target 20.0 mg/mL in SBS): 19.1 mg/mL
